Source: ChEMBL document CHEMBL4000192, “Identification and optimization of a novel series of indoleamine 2,3-dioxygenase inhibitors” (Bioorg Med Chem Lett, 2017)

How the values were obtained:
HeLa = assay: Cytotoxic activity against human HeLa cells by […]; type: cell-based
[1] = biological target: T1, Indoleamine 2,3-dioxygenase 1 (Homo sapiens, UniProt P14902); assay: Inhibition of IDO1 in IFN-gamma stimulated human HeLa cells assessed as inhibition of kynurenine production preincubated with cells followed by IFN-gamma addition measured after 20 hrs; type: cell-based
Target sequence in this assay (P14902 whole entry): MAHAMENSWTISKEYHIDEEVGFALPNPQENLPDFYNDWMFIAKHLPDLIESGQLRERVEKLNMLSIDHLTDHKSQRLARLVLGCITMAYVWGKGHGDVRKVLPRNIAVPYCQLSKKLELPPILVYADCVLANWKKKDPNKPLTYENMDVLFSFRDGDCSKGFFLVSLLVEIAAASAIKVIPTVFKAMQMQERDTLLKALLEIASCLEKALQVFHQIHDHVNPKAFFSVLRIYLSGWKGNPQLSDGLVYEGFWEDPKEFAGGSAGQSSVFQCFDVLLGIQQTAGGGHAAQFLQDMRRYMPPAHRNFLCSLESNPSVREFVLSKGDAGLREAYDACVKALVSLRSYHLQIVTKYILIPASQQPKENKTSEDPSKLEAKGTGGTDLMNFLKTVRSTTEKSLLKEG

[2] = Metabolic stability in human liver microsomes assessed as parent compound remaining at 0.5 uM after 10 mins; type: ADME, microsome; settings: read-out: Stability
[3] = Metabolic stability in rat liver microsomes assessed as parent compound remaining at 0.5 uM after 10 mins; type: ADME, microsome; settings: read-out: Stability
[4] = Metabolic stability in mouse liver microsomes assessed as parent compound remaining at 0.5 uM after 10 mins; type: ADME, microsome; settings: read-out: Stability
[5] = biological target: T1, Indoleamine 2,3-dioxygenase 1; assay: Inhibition of IDO1 (unknown origin) using tryptophan as substrate preincubated for 15 mins followed by substrate addition by high-throughput screening assay
Target sequence in this assay (P14902 whole entry): as above

Cytochrome P450 2C9 = Cytochrome P450 2C9 (Homo sapiens, UniProt P11712); assay: Inhibition of CYP2C9 (unknown origin); type: ADME
Sequence of Cytochrome P450 2C9 (P11712 whole entry): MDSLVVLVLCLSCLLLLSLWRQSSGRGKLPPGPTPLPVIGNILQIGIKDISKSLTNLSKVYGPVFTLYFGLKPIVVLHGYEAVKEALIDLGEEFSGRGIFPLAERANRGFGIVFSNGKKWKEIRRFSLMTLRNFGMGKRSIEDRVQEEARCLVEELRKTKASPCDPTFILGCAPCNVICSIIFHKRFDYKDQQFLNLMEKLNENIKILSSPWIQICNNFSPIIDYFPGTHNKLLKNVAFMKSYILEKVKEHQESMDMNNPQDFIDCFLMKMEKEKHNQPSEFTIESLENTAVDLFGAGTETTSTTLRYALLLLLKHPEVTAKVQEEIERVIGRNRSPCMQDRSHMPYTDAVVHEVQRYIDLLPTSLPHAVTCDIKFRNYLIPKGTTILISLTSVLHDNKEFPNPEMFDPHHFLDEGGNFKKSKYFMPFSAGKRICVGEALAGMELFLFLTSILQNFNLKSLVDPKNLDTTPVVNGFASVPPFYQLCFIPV

Cytochrome P450 1A2 = biological target: T2, Cytochrome P450 1A2 (Homo sapiens, UniProt P05177); assay: Inhibition of CYP1A2 (unknown origin); type: ADME
T2 sequence (P05177 whole entry): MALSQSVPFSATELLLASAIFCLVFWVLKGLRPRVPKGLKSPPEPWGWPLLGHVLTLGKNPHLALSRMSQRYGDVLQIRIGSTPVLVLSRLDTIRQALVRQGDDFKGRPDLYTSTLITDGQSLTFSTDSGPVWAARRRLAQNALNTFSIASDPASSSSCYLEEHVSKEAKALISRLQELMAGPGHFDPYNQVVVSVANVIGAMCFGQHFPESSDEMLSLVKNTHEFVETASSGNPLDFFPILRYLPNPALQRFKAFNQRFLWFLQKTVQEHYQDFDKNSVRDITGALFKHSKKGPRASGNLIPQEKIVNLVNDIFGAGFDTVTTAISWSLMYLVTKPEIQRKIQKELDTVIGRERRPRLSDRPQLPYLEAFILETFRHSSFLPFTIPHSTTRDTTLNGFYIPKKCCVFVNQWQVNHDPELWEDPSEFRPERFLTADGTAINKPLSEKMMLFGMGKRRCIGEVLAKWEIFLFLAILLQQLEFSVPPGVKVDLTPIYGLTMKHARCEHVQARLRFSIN

Cytochrome P450 2C19 = Cytochrome P450 2C19 (Homo sapiens, UniProt P33261); assay: Inhibition of CYP2C19 (unknown origin); type: ADME
Sequence of Cytochrome P450 2C19 (P33261 whole entry): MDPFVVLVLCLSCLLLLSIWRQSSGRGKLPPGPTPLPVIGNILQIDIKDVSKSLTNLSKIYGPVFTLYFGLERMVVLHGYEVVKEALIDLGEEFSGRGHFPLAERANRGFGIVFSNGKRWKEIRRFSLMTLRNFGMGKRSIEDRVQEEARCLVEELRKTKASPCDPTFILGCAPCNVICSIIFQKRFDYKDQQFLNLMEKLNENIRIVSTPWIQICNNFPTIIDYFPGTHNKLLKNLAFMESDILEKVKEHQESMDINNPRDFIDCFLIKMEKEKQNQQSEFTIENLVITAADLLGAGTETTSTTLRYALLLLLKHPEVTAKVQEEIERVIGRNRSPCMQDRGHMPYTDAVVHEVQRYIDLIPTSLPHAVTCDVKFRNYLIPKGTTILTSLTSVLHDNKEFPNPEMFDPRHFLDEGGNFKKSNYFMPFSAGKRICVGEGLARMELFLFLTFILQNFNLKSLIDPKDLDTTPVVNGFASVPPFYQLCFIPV

Cytochrome P450 2D6 = Cytochrome P450 2D6 (Homo sapiens, UniProt P10635); assay: Inhibition of CYP2D6 (unknown origin); type: ADME
Sequence of Cytochrome P450 2D6 (P10635 whole entry): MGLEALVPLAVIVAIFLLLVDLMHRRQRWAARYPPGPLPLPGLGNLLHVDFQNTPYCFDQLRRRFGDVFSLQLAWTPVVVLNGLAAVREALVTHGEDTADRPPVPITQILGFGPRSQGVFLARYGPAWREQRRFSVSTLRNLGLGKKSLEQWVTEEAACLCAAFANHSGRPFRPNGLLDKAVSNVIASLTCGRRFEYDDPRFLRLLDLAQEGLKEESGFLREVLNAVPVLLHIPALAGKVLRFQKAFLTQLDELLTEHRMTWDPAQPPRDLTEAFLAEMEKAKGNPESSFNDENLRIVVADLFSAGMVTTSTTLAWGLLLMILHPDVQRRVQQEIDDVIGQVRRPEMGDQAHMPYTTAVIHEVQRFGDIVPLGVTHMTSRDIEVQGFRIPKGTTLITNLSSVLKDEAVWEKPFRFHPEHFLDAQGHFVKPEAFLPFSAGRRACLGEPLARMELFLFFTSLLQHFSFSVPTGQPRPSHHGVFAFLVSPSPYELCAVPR

Cytochrome P450 3A4 [6] = biological target: T3, Cytochrome P450 3A4 (Homo sapiens, UniProt P08684); assay: Inhibition of CYP3A4 (unknown origin) using BFC as substrate; type: ADME
T3 sequence (P08684 whole entry): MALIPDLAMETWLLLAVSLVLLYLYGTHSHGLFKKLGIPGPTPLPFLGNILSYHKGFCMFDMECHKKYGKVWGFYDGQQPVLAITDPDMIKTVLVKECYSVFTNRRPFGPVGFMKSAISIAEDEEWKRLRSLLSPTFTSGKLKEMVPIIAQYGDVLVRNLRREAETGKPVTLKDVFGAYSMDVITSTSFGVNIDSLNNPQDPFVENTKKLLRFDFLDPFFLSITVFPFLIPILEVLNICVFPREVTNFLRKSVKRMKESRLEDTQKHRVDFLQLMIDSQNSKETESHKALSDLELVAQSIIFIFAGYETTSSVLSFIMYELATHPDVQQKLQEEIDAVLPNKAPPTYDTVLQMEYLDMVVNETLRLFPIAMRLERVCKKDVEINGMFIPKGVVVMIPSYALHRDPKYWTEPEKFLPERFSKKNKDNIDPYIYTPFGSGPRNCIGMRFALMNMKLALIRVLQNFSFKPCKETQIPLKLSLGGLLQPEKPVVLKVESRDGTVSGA

Cytochrome P450 3A4 [7] = biological target: T3, Cytochrome P450 3A4; assay: Inhibition of CYP3A4 (unknown origin) using BZR as substrate; type: ADME
Cytochrome P450 2C8 = biological target: T4, Cytochrome P450 2C8 (Homo sapiens, UniProt P10632); assay: Inhibition of CYP2C8 (unknown origin); type: ADME
T4 sequence (P10632 whole entry): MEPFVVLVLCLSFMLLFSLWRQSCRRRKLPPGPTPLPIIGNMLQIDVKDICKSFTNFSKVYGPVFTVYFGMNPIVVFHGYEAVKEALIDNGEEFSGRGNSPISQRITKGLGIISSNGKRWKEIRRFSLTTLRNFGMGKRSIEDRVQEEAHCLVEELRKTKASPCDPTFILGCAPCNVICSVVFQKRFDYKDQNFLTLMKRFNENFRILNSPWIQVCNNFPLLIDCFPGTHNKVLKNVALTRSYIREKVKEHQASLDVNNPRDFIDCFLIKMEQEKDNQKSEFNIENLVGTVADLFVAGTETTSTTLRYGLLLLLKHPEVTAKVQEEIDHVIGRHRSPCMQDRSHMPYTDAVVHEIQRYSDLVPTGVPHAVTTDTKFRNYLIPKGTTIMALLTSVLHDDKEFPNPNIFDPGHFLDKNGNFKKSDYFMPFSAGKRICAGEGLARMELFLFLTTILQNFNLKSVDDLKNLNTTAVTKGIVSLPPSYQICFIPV

Cytochrome P450 2B6 = biological target: T5, Cytochrome P450 2B6 (Homo sapiens, UniProt P20813); assay: Inhibition of CYP2B6 (unknown origin); type: ADME
T5 sequence (P20813 whole entry): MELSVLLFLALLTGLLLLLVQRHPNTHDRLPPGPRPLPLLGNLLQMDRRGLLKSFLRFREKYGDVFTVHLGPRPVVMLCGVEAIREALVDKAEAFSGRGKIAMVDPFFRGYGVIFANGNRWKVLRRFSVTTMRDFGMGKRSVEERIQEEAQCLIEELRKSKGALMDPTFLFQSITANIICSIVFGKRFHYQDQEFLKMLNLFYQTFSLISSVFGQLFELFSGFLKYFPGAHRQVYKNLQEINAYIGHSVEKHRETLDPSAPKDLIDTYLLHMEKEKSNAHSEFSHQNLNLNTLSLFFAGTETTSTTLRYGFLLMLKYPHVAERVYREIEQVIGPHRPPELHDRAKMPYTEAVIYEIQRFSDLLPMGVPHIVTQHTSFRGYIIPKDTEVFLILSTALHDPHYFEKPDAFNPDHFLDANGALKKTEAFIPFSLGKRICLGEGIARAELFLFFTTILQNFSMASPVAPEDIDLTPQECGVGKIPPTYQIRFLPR

[8] = biological target: T1, Indoleamine 2,3-dioxygenase 1; assay: Inhibition of IDO1 (unknown origin) at 25 uM using tryptophan as substrate preincubated for 15 mins followed by substrate addition by high-throughput screening assay relative to control
Target sequence in this assay (P14902 whole entry, looked up): as the sequence (P14902 whole entry) above

Cc1ccc(NC(=O)Nc2cc(-c3cccc(C(=O)O)c3F)ccc2Oc2ccccc2C(C)(C)C)cc1
IC50 (HeLa): > 30 µM | IC50 [1]: 4.5 µM

COc1ccc(-c2ccc(Oc3cccc4c3CCCC4)c(NC(=O)Nc3ccc(C)cc3)c2)cc1C(=O)O
IC50 (HeLa): > 30 µM | remaining at 10 min, 0.5 µM [2]: 100% | remaining at 10 min, 0.5 µM [3]: 95% | remaining at 10 min, 0.5 µM [4]: 69% | IC50 [1]: 0.1 µM

COc1ccc(-c2ccc(Oc3ccccc3C#N)c(NC(=O)Nc3ccc(C)cc3)c2)cc1C(=O)O
IC50 (HeLa): > 30 µM | IC50 [1]: 6 µM

COc1ccc(-c2ccc(Oc3ccccc3C(C)C)c(NC(=O)Nc3ccc(C)cc3)c2)cc1C(=O)O
IC50 (HeLa): > 30 µM | IC50 [1]: 0.34 µM

Cc1ccc(NC(=O)Nc2cc(-c3cc(Cl)cc(C(=O)O)c3)ccc2Oc2ccccc2C(C)(C)C)cc1
IC50 (HeLa): > 30 µM | IC50 [1]: 0.25 µM

CC(C)(C)c1ccccc1Oc1ccc(-c2cccc(C(=O)O)c2)cc1NC(=O)Nc1ccc(Br)cc1
IC50 (HeLa): > 30 µM

COc1ccccc1Oc1ccc(-c2ccc(OC)c(C(=O)O)c2)cc1NC(=O)Nc1ccc(C)cc1
IC50 (HeLa): > 30 µM

COc1ccc(-c2ccc(Oc3cccc(C(C)(C)C)c3)c(NC(=O)Nc3ccc(C)cc3)c2)cc1C(=O)O
IC50 (HeLa): > 30 µM

C#CCOc1cccc(Oc2ccc(-c3ccc(OC)c(C(=O)O)c3)cc2NC(=O)Nc2ccc(C)cc2)c1C
IC50 (HeLa): > 30 µM

Cc1ccc(NC(=O)Nc2cc(-c3ccc(Cl)c(C(=O)O)c3)ccc2Oc2ccccc2C(C)(C)C)cc1
IC50 (HeLa): > 30 µM

COc1ccc(-c2ccc(Oc3ccccc3Cl)c(NC(=O)Nc3ccc(C)cc3)c2)cc1C(=O)O
IC50 (HeLa): > 30 µM

Cc1ccc(NC(=O)Nc2cc(-c3cccc(C(=O)O)c3)ccc2Oc2ccccc2C(C)(C)C)cc1
IC50 (HeLa): > 30 µM

CCOc1ccc(-c2ccc(Oc3ccccc3C(C)(C)C)c(NC(=O)Nc3ccc(C)cc3)c2)cc1C(=O)O
IC50 (HeLa): > 30 µM

COc1ccc(-c2ccc(Oc3ccccc3C(C)(C)C)c(NC(=O)Nc3ccc(C)cc3)c2)cc1C(=O)O
IC50 (HeLa): > 30 µM | IC50 [1]: 0.35 µM

COc1ccc(-c2ccc(Oc3ccccc3C(C)(C)CO)c(NC(=O)Nc3ccc(C)cc3)c2)cc1C(=O)O
IC50 (HeLa): > 30 µM | IC50 [1]: 2.4 µM

COc1ccc(-c2ccc(Oc3cccc4c3CCCC4)c(NC(=O)Nc3ccccc3F)c2)cc1C(=O)O
IC50 (HeLa): > 10 µM | remaining at 10 min, 0.5 µM [2]: 95% | remaining at 10 min, 0.5 µM [3]: 72% | remaining at 10 min, 0.5 µM [4]: 77%

CC(C)(C)c1ccccc1Oc1ccc(-c2cccc(C(=O)O)c2)cc1NC(=O)Nc1ccc(OC(F)(F)F)cc1
IC50 [5]: 0.087 µM | IC50 (Cytochrome P450 2C9): 2.5 µM | IC50 (Cytochrome P450 1A2): > 5 µM | IC50 (Cytochrome P450 2C19): > 5 µM | IC50 (Cytochrome P450 2D6): > 5 µM | IC50 (Cytochrome P450 3A4 [6]): > 5 µM | IC50 (Cytochrome P450 3A4 [7]): > 5 µM | IC50 (Cytochrome P450 2C8): > 5 µM | IC50 (Cytochrome P450 2B6): > 5 µM | IC50 (HeLa): 22 µM | inhibition [8]: > 75% | IC50 [1]: 4 µM

CC(C)(C)c1ccccc1Oc1ccc(-c2cccc(C(=O)O)c2)cc1NC(=O)Nc1ccccc1
IC50 (HeLa): > 30 µM | IC50 [1]: 1.5 µM

COc1ccc(-c2ccc(Oc3cccc(C)c3C)c(NC(=O)Nc3ccc(C)cc3)c2)cc1C(=O)O
IC50 (HeLa): > 30 µM

COc1ccc(NC(=O)Nc2cc(-c3cccc(C(=O)O)c3)ccc2Oc2ccccc2C(C)(C)C)cc1
IC50 (HeLa): > 30 µM

COc1ccc(-c2ccc(Oc3cccc4c3CCCC4)c(NC(=O)Nc3ccccc3Cl)c2)cc1C(=O)O
IC50 (Cytochrome P450 2C9): > 3 µM | IC50 (Cytochrome P450 1A2): > 3 µM | IC50 (Cytochrome P450 2C19): > 3 µM | IC50 (Cytochrome P450 2D6): > 3 µM | IC50 (Cytochrome P450 3A4 [6]): > 3 µM | IC50 (Cytochrome P450 3A4 [7]): > 3 µM | IC50 (Cytochrome P450 2C8): > 3 µM | IC50 (Cytochrome P450 2B6): > 3 µM | IC50 (HeLa): > 30 µM | remaining at 10 min, 0.5 µM [2]: 74% | remaining at 10 min, 0.5 µM [3]: 83% | remaining at 10 min, 0.5 µM [4]: 74% | IC50 [1]: 0.022 µM

CCCc1ccccc1Oc1ccc(-c2ccc(OC)c(C(=O)O)c2)cc1NC(=O)Nc1ccc(C)cc1
IC50 (HeLa): > 30 µM

CC(C)(C)c1ccccc1Oc1ccc(-c2cccc(C(=O)O)c2)cc1NC(=O)Nc1ccc(Cl)cc1
IC50 (HeLa): > 30 µM

COc1ccc(-c2ccc(Oc3cccc4c3CCCC4)c(NC(=O)Nc3ccccc3)c2)cc1C(=O)O
IC50 (HeLa): > 10 µM | remaining at 10 min, 0.5 µM [2]: 80% | remaining at 10 min, 0.5 µM [3]: 92% | remaining at 10 min, 0.5 µM [4]: 96% | IC50 [1]: 0.062 µM

CC(C)(C)c1ccccc1Oc1ccc(-c2cccc(C(=O)O)c2)cc1NC(=O)Nc1ccc(OC(F)F)cc1
IC50 (HeLa): > 30 µM | IC50 [1]: 2.6 µM

COc1ccc(-c2ccc(Oc3cccc4c3CCCC4)c(NC(=O)Nc3ccccc3C)c2)cc1C(=O)O
IC50 (Cytochrome P450 2C9): > 3 µM | IC50 (Cytochrome P450 1A2): > 3 µM | IC50 (Cytochrome P450 2C19): > 3 µM | IC50 (Cytochrome P450 2D6): > 3 µM | IC50 (Cytochrome P450 3A4 [6]): > 3 µM | IC50 (Cytochrome P450 3A4 [7]): > 3 µM | IC50 (Cytochrome P450 2C8): > 3 µM | IC50 (Cytochrome P450 2B6): > 3 µM | IC50 (HeLa): > 30 µM | remaining at 10 min, 0.5 µM [2]: 41% | remaining at 10 min, 0.5 µM [3]: 65% | remaining at 10 min, 0.5 µM [4]: 70% | IC50 [1]: 0.049 µM

Cc1cccc(NC(=O)Nc2cc(-c3cccc(C(=O)O)c3)ccc2Oc2ccccc2C(C)(C)C)c1
IC50 (HeLa): > 30 µM

COc1ccc(-c2ccc(Oc3ccccc3C)c(NC(=O)Nc3ccc(C)cc3)c2)cc1C(=O)O
IC50 (HeLa): > 30 µM

COc1ccc(-c2ccc(Oc3cccc4c3CCC4)c(NC(=O)Nc3ccc(C)cc3)c2)cc1C(=O)O
IC50 (HeLa): > 30 µM

Cc1ccccc1NC(=O)Nc1cc(-c2cccc(C(=O)O)c2)ccc1Oc1ccccc1C(C)(C)C
IC50 (HeLa): > 30 µM | IC50 [1]: 1 µM

COc1ccc(-c2ccc(Oc3cccc4c3CCCC4)c(NC(=O)Nc3cccc(C)c3)c2)cc1C(=O)O
IC50 (Cytochrome P450 2C9): > 3 µM | IC50 (Cytochrome P450 1A2): > 3 µM | IC50 (Cytochrome P450 2C19): > 3 µM | IC50 (Cytochrome P450 2D6): > 3 µM | IC50 (Cytochrome P450 3A4 [6]): > 3 µM | IC50 (Cytochrome P450 3A4 [7]): > 3 µM | IC50 (Cytochrome P450 2C8): > 3 µM | IC50 (Cytochrome P450 2B6): > 3 µM | IC50 (HeLa): > 30 µM | remaining at 10 min, 0.5 µM [2]: 84% | remaining at 10 min, 0.5 µM [3]: 71% | remaining at 10 min, 0.5 µM [4]: 86%

CCc1ccccc1Oc1ccc(-c2ccc(OC)c(C(=O)O)c2)cc1NC(=O)Nc1ccc(C)cc1
IC50 (HeLa): > 30 µM
